Assay results: patent US20240076620A1, “PRODUCTION OF SKELETAL MUSCLE CELLS AND SKELETAL MUSCLE TISSUE FROM PLURIPOTENT STEM CELLS” (Georg-August-Universität Göttingen Stiftung Öffentlichen …, priority 2019, published 2024)

Assays:
Assay type in all cases: cell-based, human
[1] = tested on: MYH2 (fast myosin heavy chain); assay: Western blot of myosin heavy chain protein in ESM; conditions: four-week addition of 0.1 μM T3; day 84; three independent experiments
Protocol: (§1) To investigate the molecular cause of this improved muscle function, the expression of different proteins was analyzed by Western blots. MYH2 is the heavy chain of the fast myosin (MYH2; fast myosin heavy chain); MYH7 is the heavy chain of the slow myosin (MYH7; slow myosin heavy chain); MYH3 is the heavy chain of the embryonic myosin (MYH3; embryonic myosin heavy chain). Protein expression was analyzed at day 84. […] Based on three independent experiments, the expression is increased at least 5-fold. The expression of MYH7 remained unchanged by an addition of 0.1 μM T3. […] These protein expression data support the functional data from FIGS. 10B, as the reduced response time of the engineered skeletal muscle can be explained by an increased expression of the fast myosin (MYH2) isoform by T3.
(§2) For protein isolation, engineered skeletal muscle was placed in an Eppendorf tube and snap frozen in liquid nitrogen. To the engineered skeletal muscle, 150 μl of ice-cold protein lysate buffer (2.38 g HEPES, 10.20 g NaCl, 100 ml glycerol, 102 mg MgCl2, 93 mg EDTA, 19 mg EGTA, 5 ml NP-40 in a total volume of 500 ml ddH2O) containing 1/10 phosphatase inhibitor (Roche) and 1/7 protease inhibitor (Roche) were added. A 7-mm stainless steel ball (Qiagen) was added to the Eppendorf tube, and the sample was homogenized using the TissueLyser II (Qiagen) for 30 seconds at 30 Hz and 4° C., followed by incubation on ice for 2 hours and then centrifugation at 12,000 rpm and 4° C. for 30 minutes. The supernatant was collected as a protein sample, and the protein concentration was measured by Bradford protein assay. […] Protein expression in ESM was analyzed by Western blot using the following primary antibodies: monoclonal embryonic myosin heavy chain 3 (1:500, F1.652, DSHB), slow myosin type heavy chain 7 (1:500, A4.951, DSHB), and fast myosin type heavy chain 2 (1:100, A4.74, DSHB). […] Protein quantification from the Western blot was performed using ImageJ.

[2] = tested on: MYH3 (embryonic myosin heavy chain); assay: Western blot of myosin heavy chain protein in ESM; conditions: addition of 0.1 μM T3; day 84; on average
Protocol: as §1, §2

[3] = tested on: MYH7 (slow myosin heavy chain); assay: Western blot of myosin heavy chain protein in ESM; conditions: addition of 0.1 μM T3; day 84
Protocol: as §1, §2

[4] = tested on: engineered skeletal muscle tissue (ESM); assay: Isometric force measurements of engineered skeletal muscle (ESM) matured with medium additives; conditions: for contraction speed (+dFOC/dt): 100 Hz stimulation; for contraction speed (+dFOC/dt) / relaxation speed (−dFOC/dt): vs without added T3; for relaxation speed (−dFOC/dt): after 100 Hz stimulation; for increase of the force of contraction: 100 Hz, vs no creatine
Source text: To further increase the function of engineered skeletal muscle, e.g. the contraction force can be increased by adding specific molecules. In this example, we specifically tested the enhancement of the contraction force, as well as contraction and relaxation times, in response to the addition of creatine and an increased concentration of thyroid hormone T3 (triiodo-L-thyronine (T3); from 3 to 100 nmol/L in the maturation medium in step iv). Here, the procedure according to Examples 1 and 2 was performed first. In contrast to Example 2, the maturation medium was supplemented with creatine or an increased concentration of T3 either between days 28 and 56 or between days 56 and 84 of the method.
The maturation medium was changed every other day and cultured under mechanical stretching for up to 9 weeks. The maturation medium comprised DMEM, with low glucose, GlutaMAX™ Supplement, pyruvate (Thermo Fisher Scientific), 1% N-2 Supplement (Thermo Fisher Scientific), 2% B-27 Supplement (Thermo Fisher Scientific), and optional antibiotics (e.g., 1% Pen/Strep-Thermo Fisher Scientific). 0.1 μM T3 (Sigma-Aldrich) or 1 mM creatine monohydrate (Sigma-Aldrich) were added to the maturation medium for a four-week period when indicated (e.g., day 28-56 or day 56-84).
The contractile function of engineered skeletal muscle tissue was measured under isometric conditions in an organ bath filled with gassed (5% CO2/95% 02) Tyrode solution (containing in mmol/L): 120 NaCl, 1 MgCl2, 0.2 CaCl2), 5.4 KCl, 22.6 NaHCO3, […], 5.6 glucose, and 0.56 ascorbate) at 37° C. To verify the force-length relationship—while ESMs were electrically stimulated at 1 Hz with 5 ms rectangular pulses of 200 mA—muscle length was increased by mechanical stretching in intervals of 125 μm, until the maximum contraction force was observed. At the length of maximum force generation, tetanic contraction force was assessed under defined stimulation frequencies (4-second stimulation at 10, 20, 40, 60, 80, and 100 Hz).

[5] = 0.1 μM T3 between days 56 and 84

Row | SMILES | protein expression of MYH2, increase [1] | MYH3 expression [2] | expression of MYH7 [3] | contraction speed (+dFOC/dt) [4, 5] | relaxation speed (−dFOC/dt) [4, 5] | contraction speed (+dFOC/dt) ([4]; 0.1 μM T3 day 28 to day 56) | relaxation speed (−dFOC/dt) ([4]; 0.1 μM T3 day 28 to day 56) | increase of the force of contraction ([4]; 1 mM creatine day 28 to day 56) [%] | increase of the force of contraction ([4]; 1 mM creatine day 56 to day 84) [%] | force of contraction (FOC) ([4]; maturation medium with 1 mM creatine day 28 to day 56, tetanic contraction at 100 Hz stimulation, without creatine 1.8 mN) [mN] | force of contraction (twitch tension) ([4]; maturation medium with 1 mM creatine day 56 to day 84, tetanic contraction at 100 Hz stimulation, without creatine 4.0 mN) [mN]
1 | N[C@@H](Cc1cc(I)c(Oc2ccc(O)c(I)c2)c(I)c1)C(=O)O [T3, triiodo-L-thyronine] | at least 5 fold | reduced by approximately half | unchanged | decreased | decreased | decreased significantly | decreased significantly | – | – | – | –
2 | CN(CC(=O)O)C(=N)N [creatine] | – | – | – | – | – | – | – | 39 | 30 | 2.5 | 5.2
